This is an account of results in PubChem BioAssay AID2060627 (Molecular Pharmacology Branch, DTP, NCI, 2025).

The test system of the assay is 156681-154-R-J1-PDC complex spheroid viability. As to the kind of experiment: Anticancer human tumor 156681-154-R-J1-PDC patient-derived melanoma cell line growth inhibition [CLK]. To be noted: for viability, T/C: stronger effect = lower value. From the text: A high-throughput screen of multi-cell type tumor spheroids was designed to identify active combinations of […] and targeted small molecules. Complex spheroids include a stromal component modeled by human endothelial cells (HUVEC) and fibroblasts modeled by human mesenchymal stem cells (MSCs). The concentration ranges selected for each drug and investigational agent were based upon clinically achievable concentrations if the clinical Cmax of the agent was known.
Compounds. The drugs and investigational agents: cirtuvivint (SM08502; NSC835563), CC-671 (NSC850746), vemurafenib (NSC761431), tapotoclax (NSC804041), sotorasib (NSC818433), adagrasib (NSC831453), MRTX-1133 (NSC836407), BAY2416964 (NSC825713), copanlisib (NSC816437), inavolisib (NSC800729), abemaciclib (NSC768073), osimertinib (NSC779217), entinostat (NSC756642), eltanexor (KPT-8602, NSC794443), venetoclax (NSC766270), ceralasertib (NSC777638), bortezomib (NSC756655), olaparib (NSC753686), talazoparib (NSC767125), alisertib (NSC759677), peposertib (NSC802822), gemcitabine (NSC613327), 5-fluorouracil (NSC19893), SN-38 (NSC673596), oxaliplatin (NSC266046), paclitaxel (NSC125973), and doxorubicin (NSC123127), were obtained from the National Cancer Institute (NCI) Developmental Therapeutics Program Chemical Repository. The FDA-approved anticancer drug set is available from the Developmental Therapeutics Program at https://dtp.cancer.gov/organization/dscb/obtaining/available plates.htm. […] The stock solutions were prepared in dimethyl sulfoxide (DMSO, Sigma-Aldrich, St. Louis, MO, cat. D2650), except for the platinum complexes which were prepared in saline (Quality Biological, Gaithersburg, MD, cat. 114-055-101), at 800-fold the tested concentration and stored at -70 degrees C prior to their use. All drugs and investigational agents were tested over a range starting from a high concentration at or near the clinical Cmax and decreasing in half-log increments. If the clinical Cmax for an agent had not been determined, the highest concentration tested was 10 microM.
Cell Culture. All cells were maintained in an incubator at 37 degrees C and 5% CO2 with 95% humidity. The PDC lines were cultured according to standard operating procedures established by the NCI PDMR. Briefly, all PDCs were thawed and cultured in Matrigel-coated flasks prepared with a working solution of 1X Ham's F-12 nutrient mix, without supplementation (Invitrogen, Waltham, MA, cat. 11765054), 100 U/mL penicillin-streptomycin (Invitrogen, cat. 15140122), and 2.5% Matrigel (Corning Inc., Corning, NY, cat. 354248) for the first three passages. The 947758-054-R-J2-PDC line was cultured in 6B/Colon 1A media, which includes advanced DMEM/F-12 (Thermo Fisher Scientific, cat. 12634028), 10 mM HEPES (Thermo Fisher Scientific, cat. 15630080), 1X GlutaMAX supplement (Thermo Fisher Scientific, cat. 35050061), 0.1 mg/mL primocin (InvivoGen, cat. ant-pm-2), 10% defined fetal bovine serum, heat inactivated (HyClone Laboratories Inc., cat. SH30070.03HI), 1.25 mM N-Acetyl-L-cysteine (Sigma-Aldrich, cat. A9165), 10 mM nicotinamide (Sigma-Aldrich, cat. N0636), 1X B-27 supplement (Thermo Fisher Scientific, cat. 17504044), 1X N-2 supplement (Thermo Fisher Scientific, cat. 17502048), and 10 microM Y-27632 dihydrochloride (Tocris Bioscience, cat. 1254). The 876862-298-R-J1-PDC was cultured in 6E media, which includes all 6B/Colon 1A media components plus 50% L-WRN conditioned media (ATCC, cat. CRL-3276), 50 ng/mL recombinant human EGF recombinant protein (hEGF; Thermo Fisher Scientific, cat. PHG0311), 10 ng/mL recombinant human fibroblast growth factor 10 (hGFG-10; PeproTech, cat. 100-26), 1 ng/mL recombinant human fibroblast growth factor 2 (hFGF-2; PeproTech, cat. 100-18B), and 1 µM prostaglandin E2 (PGE2; Tocris, cat. 2296). The 227483-062-R1-J1-PDC line was cultured in Panc media, containing all 6E components except hFGF-2, with the addition of 500 nM SB-431542 (Selleckchem, cat. S1067) and 10 nM gastrin (Tocris, cat. 3006). […]

Where “and” joins values, the source holds several entries; their conditions need not be identical. Equal entries are not always repeated. A value given as a limit tells only on which side of the number the result lay.
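Further: spheroids exposed to the agents for seven days.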

`CC(=O)O[C@H]1C(=O)[C@@]2(C)[C@H]([C@H](OC(=O)c3ccccc3)[C@]3(O)C[C@H](OC(=O)[C@H](O)[C@@H](NC(=O)c4ccccc4)c4ccccc4)C(C)=C1C3(C)C)[C@]1(OC(C)=O)CO[C@@H]1C[C@@H]2O`: the viability, T/C (compound 0.0316 µM) is 19.9% and 16%; the viability, T/C (compound 0.1 µM) was 13.5% and 12.5%; the viability, T/C (compound 0.316 µM) is 14.8% and 14.5%; the viability, T/C (compound 1 µM) is 23.2% and 18.2%; the viability, T/C (compound 3.16 µM) is 26.6% and 27.1%; the viability, T/C (compound 10 µM) is 26.6% and 32.9%. In addition, the IC50 (curve of compound) was below 0.0316 µM.

Regarding `CC1(C)CCC(CN2CCN(c3ccc(C(=O)NS(=O)(=O)c4ccc(NCC5CCOCC5)c([N+](=O)[O-])c4)c(Oc4cnc5[nH]ccc5c4)c3)CC2)=C(c2ccc(Cl)cc2)C1`, the viability, T/C (compound 0.0316 µM) was 112% and 88.5%; the viability, T/C (compound 0.1 µM) is 81.5% and 88.9%; the viability, T/C (compound 0.316 µM) is 88.7% and 90.4%; the viability, T/C (compound 1 µM) was 101% and 94.3%; the viability, T/C (compound 3.16 µM) is 68.2% and 77.1%; the viability, T/C (compound 10 µM) is 4.6% and 1.6%. Also, for the setting “curve of compound”, the IC50 is 4.39 µM and 4.78 µM.

For `CC1COCCN1c1cc(C2(S(C)(=N)=O)CC2)nc(-c2ccnc3[nH]ccc23)n1` (stereo not drawn), the viability, T/C (compound 0.0316 µM) is 78.6% and 84.9%; the viability, T/C (compound 0.1 µM) is 88.3% and 97.8%; the viability, T/C (compound 0.316 µM) was 85.9% and 86.3%; the viability, T/C (compound 1 µM) is 61.9% and 48%; the viability, T/C (compound 3.16 µM) was 24% and 20.1%; the viability, T/C (compound 10 µM) is 15.4% and 13.1%. In addition, for the setting “curve of compound”, the half-inhibitory concentration (IC50) was 1.44 µM and 0.956 µM.

Turning to `COc1ccc([C@@H](O)c2cc(-c3ncnc4cc(N5CCOCC5)ccc34)c(F)cc2Cl)nn1`, the viability, T/C was 109% and 79.3% (compound 0.0316 µM); 80.7% and 73.7% (compound 0.1 µM); 90.2% and 74.1% (compound 0.316 µM); 74.8% and 48.6% (compound 1 µM); 49.6% and 41.3% (compound 3.16 µM); 24.8% and 27.6% (compound 10 µM). For the same compound, the 50% inhibitory concentration (IC50) (curve of compound) is 3.38 µM and 1.26 µM.

For the compound `COc1cccc2c1C(=O)c1c(O)c3c(c(O)c1C2=O)CC(O)(C(=O)CO)CC3OC1CC(N)C(O)C(C)O1` (stereo not drawn), the viability, T/C runs as follows: (compound 0.0316 µM) 37% and 29.8%; (compound 0.1 µM) 25.2% and 19.9%; (compound 0.316 µM) 9.16% and 2.97%; (compound 1 µM) 0.48% and 0.17%; (compound 3.16 µM) 1.37% and 0.12%; (compound 10 µM) 2.47% and 0.67%. The IC50 (curve of compound) is below 0.0316 µM.

As for `Nc1ccn(C2OC(CO)C(O)C2(F)F)c(=O)n1` (stereo not drawn), the viability, T/C reads like this: (compound 0.0316 µM) 14.4% and 13.7%; (compound 0.1 µM) 13.7% and 12.6%; (compound 0.316 µM) 15.7% and 16.1%; (compound 1 µM) 12.8% and 13.2%; (compound 3.16 µM) 16.9% and 14.6%; (compound 10 µM) 13.1% and 14.5%. In addition, the IC50 (curve of compound) is below 0.0316 µM.

Consider `O=C(c1cc(Cc2n[nH]c(=O)c3ccccc23)ccc1F)N1CCN(C(=O)C2CC2)CC1`, for which the viability, T/C is 92.3% and 97.7% (compound 0.0316 µM); 72.3% and 78.8% (compound 0.1 µM); 72% and 85.3% (compound 0.316 µM); 83.4% and 78.3% (compound 1 µM); 72.3% and 90.1% (compound 3.16 µM); 56.2% and 57.6% (compound 10 µM). For the setting “curve of compound”, the IC50 was above 10 µM.

Take `O=c1[nH]cc(F)c(=O)[nH]1`: the viability, T/C is 72.7% and 87.1% (compound 0.0316 µM); 85.4% and 88.9% (compound 0.1 µM); 84.8% and 79.8% (compound 0.316 µM); 91% and 90.6% (compound 1 µM); 81.6% and 80.6% (compound 3.16 µM); 34% and 35.9% (compound 10 µM). Also, where the note is “curve of compound”, the IC50 was 6.8 µM and 7 µM.

As for `CCCS(=O)(=O)Nc1ccc(F)c(C(=O)c2c[nH]c3ncc(-c4ccc(Cl)cc4)cc23)c1F` + CN1CCN(c2cc(C(=O)Nc3cc4cc(-c5cnn(C)c5)ccc4cn3)ccn2)CC1, the half-maximal inhibitory concentration (IC50) runs as follows: (curve of first compound, second compound 0.0316 µM) 6.05 µM; (curve of first compound, second compound 0.1 µM) 4.96 µM; (curve of first compound, second compound 0.316 µM) below 0.0316 µM; (curve of first compound, second compound 1 µM) below 0.0316 µM; (curve of first compound, second compound 3.16 µM) below 0.0316 µM; (curve of first compound, second compound 10 µM) below 0.0316 µM. The viability, T/C by setting is: (second compound 0.0316 µM, first compound 0.0316 µM) 95.2%; (second compound 0.0316 µM, first compound 0.1 µM) 88.7%; (second compound 0.0316 µM, first compound 0.316 µM) 104%; (second compound 0.0316 µM, first compound 1 µM) 94.7%; (second compound 0.0316 µM, first compound 3.16 µM) 99.7%; (second compound 0.0316 µM, first compound 10 µM) 13.9%. Also, the viability, T/C is 88.3% (second compound 0.1 µM, first compound 0.0316 µM); 80.8% (second compound 0.1 µM, first compound 0.1 µM); 76.7% (second compound 0.1 µM, first compound 0.316 µM); 85% (second compound 0.1 µM, first compound 1 µM); 74.8% (second compound 0.1 µM, first compound 3.16 µM); 11.3% (second compound 0.1 µM, first compound 10 µM). In addition, the viability, T/C runs as follows: (second compound 0.316 µM, first compound 0.0316 µM) 25.4%; (second compound 0.316 µM, first compound 0.1 µM) 19.6%; (second compound 0.316 µM, first compound 0.316 µM) 28.6%; (second compound 0.316 µM, first compound 1 µM) 29.9%; (second compound 0.316 µM, first compound 3.16 µM) 24.9%; (second compound 0.316 µM, first compound 10 µM) 3.74%. The viability, T/C (second compound 1 µM, first compound 0.0316 µM) was 0.19%; the viability, T/C (second compound 1 µM, first compound 0.1 µM) was 0.44%; the viability, T/C (second compound 1 µM, first compound 0.316 µM) was 0.19%; the viability, T/C (second compound 1 µM, first compound 1 µM) was 0.14%; the viability, T/C (second compound 1 µM, first compound 3.16 µM) is 0.12%; the viability, T/C (second compound 1 µM, first compound 10 µM) is 0.13%. Also, the viability, T/C was 0.3% (second compound 3.16 µM, first compound 0.0316 µM); 0.48% (second compound 3.16 µM, first compound 0.1 µM); 0.11% (second compound 3.16 µM, first compound 0.316 µM); 0.27% (second compound 3.16 µM, first compound 1 µM); 3.96% (second compound 3.16 µM, first compound 3.16 µM); 0.11% (second compound 3.16 µM, first compound 10 µM). The viability, T/C (second compound 10 µM, first compound 0.0316 µM) was 0.13%; the viability, T/C (second compound 10 µM, first compound 0.1 µM) is 1.59%; the viability, T/C (second compound 10 µM, first compound 0.316 µM) is 0.27%; the viability, T/C (second compound 10 µM, first compound 1 µM) is 0.21%; the viability, T/C (second compound 10 µM, first compound 3.16 µM) is 3.86%; the viability, T/C (second compound 10 µM, first compound 10 µM) is 0.17%.

What is called viability, T/C is the result in the treated group divided by that in the control group, in per cent. One may read the IC50 as the concentration that gives 50% inhibition.
